How the values were obtained:
IL-6 = experiment: In vivo dose finding: plasma IL-6 after LPS challenge; set-up: species or system mouse; conditions: 50 µg to 50 mg/kg-BW/day in drinking water, 2 weeks; LPS 0.4 mg/kg-BW i.p.; 5 and 50 mg/kg most significant
Protocol: We then initiated dose response and safety studies in mice to determine testing dosages and safety of DHCA and Mal-gluc. C57BL/6 mice were treated with either DHCA (doses ranging from 50 µg to 50 mg/kg-BW/day) or Mal-gluc (doses ranging from 50 ng to 5 mg/kg-BW/day) for 2 weeks to simulate long-term administration. Mice treated with DHCA were challenged with intraperitoneal (i.p.) injection of 0.4 mg/kg-BW LPS and plasma levels of IL-6 were measured 6 h post injection. […] Following common discovery-stage practices, we measured the plasma levels of alkaline phosphatase (ALP), aspartate aminotransferase (AST), and alanine aminotransferase (ALT) for liver function and blood urea nitrogen (BUN) for renal function.
Male C57BL/6 J mice (8-week-old) were placed on a polyphenol-free AIN-93M diet and treated with various doses of DHCA (vehicle, 50 µg, 500 µg, 5 mg, and 50 mg/kg-BW/day), delivered through their drinking water for two weeks. Animals were then sacrificed and plasma was collected for routine biochemistry panel analysis including ALP, ALT, and AST for liver function and blood urea nitrogen (BUN) content for kidney function. A separate group of mice was similarly treated and challenged with an i.p. injection of 0.4 mg/kg body weight LPS and plasma was collected 6 h post injection for IL-6 analysis. […]

[1] = tested on: 37 monoaminergic receptors and transporters; experiment: Radioligand binding assay, whole panel; conditions: concentrations as high as 10 µM
Protocol: Currently available antidepressants are believed to act by modifying the activity of the brain monoaminergic system, [47]. We evaluated whether Mal-gluc and DHCA directly interact with the monoaminergic system using a radioligand binding assay.
Radioligand binding assays were performed as previously described. Briefly, crude membrane fractions prepared from a stable HEK cell line expressing recombinant receptors were mixed with a radiolabeled specific ligand and 10 µM of competitor compound (DHCA, Mal-gluc, or non-specific ligand). The percentage of radioligand binding was subsequently measured.

[2] = tested on: CpG-rich sequences of mouse IL-6 promoter and introns 1, 3; experiment: CpG-free luciferase reporter with IL-6 promoter/intron CpG-rich segments in N2a cells; type: cell-based; conditions: 24 h
Protocol: To investigate how DHCA may attenuate IL-6 generation, we tested the effect of DHCA on Toll-like receptor-4 mediated signaling pathways. PBMCs were pretreated with DHCA and stimulated with LPS using the same protocol as during screening. Samples were taken at 0, 30 min, 60 min, 6 h and 16 h following LPS stimulation and cell lysates were subjected to a multiplex ELISA assay. […] Based on evidence that DNA methylation at a single CpG in the human IL-6 promoter region effectively alters IL-6 expression, we next tested whether DHCA can modulate IL-6 gene expression through methylation mechanisms. We treated PBMC cells with DHCA and measured the expression of enzymes essential for DNA methylation/demethylation. […] To investigate how methylation influences IL-6 gene expression, we employed the CpG-free luciferase reporter system. We cloned a ~280 bp CpG rich DNA segment from the mouse IL-6 promoter into a promoterless CpG-free reporter construct and transfected into N2a cells. We found the CpG-rich IL-6 promoter segment presented no inherent promoter activity as reflected by no differences in luciferase activity compared to the control construct (Fig. 2f). […] We then cloned CpG rich DNA segments from IL-6 introns 1, 3 or 4 into the CpG-free luciferase reporter construct with a minimal EF1 promoter and no enhancer activity. […] In contrast, the CpG-rich region of IL-6 intron 4 presented no observable enhancer activity (Fig. 2g). […] To test whether DHCA may influence the expression of other pro-inflammatory factors, we measured the level of secreted cytokines following LPS stimulation (Supplementary Fig. 3).
CpG-rich motif from mouse IL-6 promoter and intron 1, intron 3, and intron 4 were cloned into basic (no promoter or enhancer) or promoter (minimal EF1 promoter with no enhancer) pCpG-free Lucia plasmid (InvivoGen) using In-Fusion Cloning Kit (Clontech Laboratories). Plasmids were prepared in E. coli GT115 cells and expressed in N2A neuoblastoma cells using lipofectamine 2000 (ThermoFisher) according to manufacturer’s instruction. Following overnight recovery, cells were subjected to 5 µM of methylation inhibitor 5-Aza-2′-deoxycytidine (AZA-DC) or DHCA treatment. Twenty-four hours later, 10 µl of medium was incubated with 50 µl of QUANTI-Luc luciferase substrate for luciferase activity assessment.

Rac1 = Rac1 expression in E18 MSN-enriched primary culture (screening, dose response); type: cell-based, mouse
Text: BDPP contains a variety of polyphenols. Orally consumed polyphenols are typically bioavailable in various organs and tissues as metabolites (phase II polyphenol conjugates and phenolic acids) following xenobiotic metabolism and gastrointestinal microbiome fermentation. It is possible that some metabolites may counteract the positive effect of the others. Therefore, if supplied as BDPP, the overall benefits might be reduced due to potential ‘cancellation’ effects. By identifying individual metabolites that selectively target key pathological mechanisms (e.g., Rac1 and IL-6) we can greatly improve the efficacy. We and others recently identified 21 BDPP-derived phenolic metabolites that accumulate in blood and/or in the CNS (14 polyphenolic metabolites and 7 phenolic acids, Supplementary Table 1)[25], [28], [33], among which 14 are currently accessible, [34]. We initiated a high-throughput screen of these metabolites for their ability to modulate IL-6 and Rac1. […]
Total RNA from MSN-enriched cultures or brain NAc was isolated using the RNeasy Mini Kit (Qiagen, Valencia, CA, USA) and reverse transcribed. Gene expression was measured in four replicates by quantitative RT-PCR using Maxima SYBR Green master mix (Fermentas) in ABI Prism 7900HT. […]

Row | SMILES | plasma IL-6 6 h post LPS injection (IL-6) | binding with any of the 37 receptors and transporters tested [1] | luciferase (enhancer) activity, IL-6 intron 1 [2] | luciferase (enhancer) activity, IL-6 intron 3 [2] | primary screening, Rac1 expression (Rac1; 9 brain bioavailable metabolites screened) | EC50 (Rac1; E18 MSN-enriched primary culture, 16 h, read-out: calculated EC50, increase of Rac1 expression) [nM]
1 | O=C(O)CCc1ccc(O)c(O)c1 [DHCA, 3(3,4-dihydroxy-phenyl) propionic acid] | dose-dependent suppression of IL-6 | no significant binding | partially attenuated | totally abolished |  | 
2 | COc1cc(-c2[o+]c3cc(O)cc(O)c3cc2O[C@@H]2O[C@H](CO)[C@@H](O)[C@H](O)[C@H]2O)cc(OC)c1O [Mal-gluc] |  |  |  |  | significantly increased Rac1 expression | 3.52

Reference: publication PMC5797143, “Epigenetic modulation of inflammation and synaptic plasticity promotes resilience against stress in mice” (Nature Communications, 2018)
